Laboratory results published in patent EP3677663A1, “NON-ENZYMATIC REMOVAL OF PROTEINACEOUS SOILS” (Henkel AG & Co. KGaA, priority 2019, dated 2020).

Assays:
Whey protein = experiment: Hydrolysis of unaltered Whey protein by polyoxometalates, monitored by SDS-PAGE; type: biochemical; details: 60°C, 1.5 mg/ml Whey protein, polyoxometalate 14 mg/ml
Protocol: (§1) All gels were 100x100x1 mm and the stacking gel was approximately 1 cm long from the bottom of the comb to the top of the resolving gel resulting in a resolving gel of 8 cm. 2. Table 1: Composition of the solutions to prepare 18% resolving and 5% stacking gel.
(§2) After pouring the resolving gel, a thin layer of isopropanol was carefully added on top of the gel. The resolving gel was left 1 hour to harden, and isopropanol was removed before pouring the stacking gel. A 12 well comb was placed inside the stacking gel and left to harden for an additional hour. The finished gels were kept in the fridge.
(§3) Samples were prepared by mixing a 10 µl of sample with 5 µl of 3X sample buffer (225 µl TRIS/HCI buffer (1M, pH 6.8), 630 mg glycerol, 50 mg SDS, 0.5 mg bromophenol blue and 250 µl 1 M DTI), incubating at 95 °C for 5 minutes and centrifuging the samples after they are cooled to room temperature. The wells of the stacking gel were loaded with 10 µl of sample and 5 µl of protein ladder.
(§4) An OmniPAGE electrophoretic cell was combined with an EV243 power supply (both produced by Consort) in experiments at 30 mA/gel and 100 V/gel for the 18% resolving gel (approximately 2.5 hours) and 20 mA/gel and 100 V/gel for the 12% resolving gel (approximately 1.5 hours). As anode and cathode buffer a TRIS/Tricine running buffer (0.1 M TRIS, 0.1 M Tricine and 0.1 wt/vol% SDS) was used for 18% gels and a TRIS/Glycine running buffer (0.2 M Glycine, 0.025 M TRIS and 0.1 wt/vol% SDS) for 12% gels. Before staining the gels were fixed for 1 hour in a 12 wt/vol% TCA solution. The staining was done by leaving the gels in a colloidal coomassie blue solution (700 ml H2O, 100 ml H3PO4, […], 1.2 g coomassie blue and 200 ml methanol) over night and subsequently destained with a heavy destain solution {60 ml methanol, 20 ml acetic acid and 120 ml water) and water. Finally, the gels were analyzed with a Gel Doc EZ imager and Image LabTM Software (both supplied by Bio-Rad). The kinetics of the reactions were studied by plotting the relative intensity of the intact proteins band in function of time and fitted to the exponential expression of a pseudo first-order reaction: I = I0 e^-kobst
(§5) In this equation I represents the intensity in function of time t, I0 the intensity at time 0 and kobs is the observed hydrolysis rate. The half-life (t½) of the intact protein was calculated according to t½ = (ln(2))/(kobs) [formula]
(§6) To solutions of 1.0 mg/ml solution of unaltered Ovalbumin or the Lactose/Ovalbumin Maillard reaction samples of example 4 or of 1.5 mg/ml solution of unaltered Whey protein or the Lactose/Whey protein Maillard reaction samples of example 4 were added the polyoxometalates of examples 1 to 3 at a concentration of 14 mg/ml. The rate of hydrolysis for the proteins at 60°C at pH 4 (sodium citrate buffer, 10 mM) and 9 (glycine/NaOH buffer, 10 mM) was studied over time. Results for the hydrolysis rate and the half-life of the unaltered protein samples are given in tables 5 and 6 and results for the half-life of altered proteinaceous samples of example 4 (treated at pH 9) are given in table 7. Table 5: Hydrolysis of unaltered Whey protein

Ovalbumin = molecular target: T1, Ovalbumin (Gallus gallus, UniProt P01012); experiment: Hydrolysis of unaltered Ovalbumin by polyoxometalates, monitored by SDS-PAGE; type: biochemical, chicken; details: 60°C, 1.0 mg/ml Ovalbumin, polyoxometalate 14 mg/ml
T1 construct: Ovalbumin from chicken egg was purchased from Acros (Mw 44.5 kDa); purchased Acros; host or cells: chicken egg
T1 sequence (P01012 1-386): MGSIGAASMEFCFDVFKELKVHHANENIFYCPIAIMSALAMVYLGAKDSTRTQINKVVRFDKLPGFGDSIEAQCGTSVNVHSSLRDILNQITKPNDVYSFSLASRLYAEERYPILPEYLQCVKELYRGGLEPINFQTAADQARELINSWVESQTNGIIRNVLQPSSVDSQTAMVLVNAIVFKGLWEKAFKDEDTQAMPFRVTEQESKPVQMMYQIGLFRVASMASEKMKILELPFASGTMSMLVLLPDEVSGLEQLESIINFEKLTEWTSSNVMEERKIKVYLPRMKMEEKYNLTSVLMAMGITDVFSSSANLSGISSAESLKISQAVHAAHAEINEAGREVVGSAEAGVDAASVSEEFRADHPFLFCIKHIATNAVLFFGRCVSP
Protocol: as §1, §2, §3, §4, §5, §6

[1] = pH 4 (sodium citrate buffer, 10 mM)
[2] = pH 9 (glycine/NaOH buffer, 10 mM)

Row | Substance | Rate x 10^-3 [min^-1] (Whey protein; [1]) | Rate x 10^-3 [min^-1] (Whey protein; [2]) | Rate x 10^-3 [min^-1] (Ovalbumin; [1]) | Rate x 10^-3 [min^-1] (Ovalbumin; [2])
1 | ((C2H5)2NH2)10[Zr(PW11O39)2] [ZrKe2] | 1.8±0.7 x 10^-3 min^-1 | 6±1 x 10^-3 min^-1 | 4.3±0.4 x 10^-3 min^-1 | 5±2 x 10^-3 min^-1
2 | K10[Ce(PW11O39)2] [CeKe2] | 9±5 x 10^-3 min^-1 | 5.30±0.04 x 10^-3 min^-1 | 6±2 x 10^-3 min^-1 | 7±1 x 10^-3 min^-1
3 | ((C2H5)2NH2)6[Zr2(PW11O39)2] [Zr2Ke2] | 3.8±0.8 x 10^-3 min^-1 | 1±1 x 10^-3 min^-1 | 6±3 x 10^-3 min^-1 | 7±3 x 10^-3 min^-1
